The target in this experiment is T1, Beta-glucuronidase (Homo sapiens, UniProt P08236).
T1 sequence (P08236 whole entry): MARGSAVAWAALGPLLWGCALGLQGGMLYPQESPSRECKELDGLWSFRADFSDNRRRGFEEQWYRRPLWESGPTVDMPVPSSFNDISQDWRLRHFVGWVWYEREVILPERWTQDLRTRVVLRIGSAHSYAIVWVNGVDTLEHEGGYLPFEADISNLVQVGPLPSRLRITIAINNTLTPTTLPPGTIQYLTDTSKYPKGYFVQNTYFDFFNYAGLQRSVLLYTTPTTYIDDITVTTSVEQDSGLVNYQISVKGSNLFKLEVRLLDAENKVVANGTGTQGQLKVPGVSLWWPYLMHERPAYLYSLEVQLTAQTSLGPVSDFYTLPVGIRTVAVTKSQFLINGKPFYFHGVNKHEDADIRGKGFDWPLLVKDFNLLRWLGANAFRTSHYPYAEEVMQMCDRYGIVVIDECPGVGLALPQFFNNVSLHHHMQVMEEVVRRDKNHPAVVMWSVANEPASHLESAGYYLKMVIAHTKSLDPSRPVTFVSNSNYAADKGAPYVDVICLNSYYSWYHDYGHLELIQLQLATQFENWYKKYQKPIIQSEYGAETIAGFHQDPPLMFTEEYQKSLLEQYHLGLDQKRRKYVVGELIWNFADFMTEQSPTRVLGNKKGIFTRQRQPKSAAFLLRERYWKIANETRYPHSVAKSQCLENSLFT

Structures are written as SMILES.

Description: Inhibition of beta-D-glucuronidase (unknown origin) assessed as reduction in p-nitrophenol formation using p-nitrophenyl-beta-D-glucuronide substarte incubated at 37 degC for 30 mins by spectrophotometric method

Turning to `Cc1cccc(-c2nnc(-c3ccc(-c4nc5cc(C)c(C)cc5[nH]4)cc3)o2)c1`, the IC50 entry was “Not Active”.
With `COc1ccc(-c2nnc(-c3ccc(-c4nc5cc(C)c(C)cc5[nH]4)cc3)o2)cc1` the entry was “Not Active”; with `Cc1cc2nc(-c3ccc(-c4nnc(-c5ccccc5C)o4)cc3)[nH]c2cc1C`, “Not Active”.
